Results taken from patent US10428080B2, “TBK/IKK inhibitor compounds and uses thereof” (Merck Patent GmbH, priority 2015, dated 2019).
Structures can show the parent of a compound that is named as a salt. Where two headings read alike, the source gives them in different places.

Assays:
TBK1 = target: T1, TBK1 (Homo sapiens, UniProt Q9UHD2); assay: TBK Biochemical Assay; conditions: read-out: TBK1 IC50
T1 sequence (Q9UHD2 1-729): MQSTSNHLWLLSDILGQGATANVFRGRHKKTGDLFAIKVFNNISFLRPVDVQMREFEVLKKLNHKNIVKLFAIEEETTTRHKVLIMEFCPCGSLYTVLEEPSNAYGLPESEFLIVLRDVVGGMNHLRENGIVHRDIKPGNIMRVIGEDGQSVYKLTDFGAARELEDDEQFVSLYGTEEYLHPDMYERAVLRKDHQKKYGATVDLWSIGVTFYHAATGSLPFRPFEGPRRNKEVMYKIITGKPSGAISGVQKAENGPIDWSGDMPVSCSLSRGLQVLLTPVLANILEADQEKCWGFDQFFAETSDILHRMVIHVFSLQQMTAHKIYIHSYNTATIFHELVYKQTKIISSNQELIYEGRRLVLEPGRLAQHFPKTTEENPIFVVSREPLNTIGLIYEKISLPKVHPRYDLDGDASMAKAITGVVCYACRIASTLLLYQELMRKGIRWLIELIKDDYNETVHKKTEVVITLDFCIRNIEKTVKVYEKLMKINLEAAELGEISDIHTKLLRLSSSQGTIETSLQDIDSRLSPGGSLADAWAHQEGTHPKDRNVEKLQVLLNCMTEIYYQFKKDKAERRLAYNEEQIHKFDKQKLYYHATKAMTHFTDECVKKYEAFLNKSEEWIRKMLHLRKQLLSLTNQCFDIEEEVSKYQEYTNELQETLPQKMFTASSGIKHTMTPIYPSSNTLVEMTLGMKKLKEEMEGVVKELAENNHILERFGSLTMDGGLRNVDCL
Procedure, shortened: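 TBK1 enzyme and substrate incubated with compounds (10-point 1:4 dilution, top 30 uM final, 1% DMSO) for 90 min at 25° C, then stopped. Substrate/product peaks read by microfluidic mobility-shift (Caliper LabChip); 10 uM staurosporine as full-inhibition control.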

IKKε = target: T2, IKKε (Homo sapiens, UniProt Q14164); assay: IKKe Biochemical Assay; conditions: read-out: IKKε IC50
T2 sequence (Q14164 1-716): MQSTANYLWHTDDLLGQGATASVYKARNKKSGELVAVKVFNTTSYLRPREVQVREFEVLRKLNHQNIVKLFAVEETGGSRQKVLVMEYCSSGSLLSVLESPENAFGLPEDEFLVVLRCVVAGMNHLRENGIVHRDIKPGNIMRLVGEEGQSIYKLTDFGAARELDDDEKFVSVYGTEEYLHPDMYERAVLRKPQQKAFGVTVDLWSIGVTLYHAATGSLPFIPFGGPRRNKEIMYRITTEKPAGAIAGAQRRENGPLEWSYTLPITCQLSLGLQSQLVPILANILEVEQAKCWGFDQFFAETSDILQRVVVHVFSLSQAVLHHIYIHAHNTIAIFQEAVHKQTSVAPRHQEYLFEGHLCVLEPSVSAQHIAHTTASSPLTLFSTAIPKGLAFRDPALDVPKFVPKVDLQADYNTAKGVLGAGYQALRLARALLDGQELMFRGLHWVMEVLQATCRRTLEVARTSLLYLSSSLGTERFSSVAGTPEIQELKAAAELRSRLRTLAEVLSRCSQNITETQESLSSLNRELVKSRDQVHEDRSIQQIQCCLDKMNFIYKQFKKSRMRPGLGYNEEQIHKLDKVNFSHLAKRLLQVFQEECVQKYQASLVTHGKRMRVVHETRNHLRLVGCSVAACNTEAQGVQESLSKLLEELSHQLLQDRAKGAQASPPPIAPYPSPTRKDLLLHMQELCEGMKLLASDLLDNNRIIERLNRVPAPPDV
Procedure, shortened: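 Recombinant IKKε and substrate were incubated with compound (10-point 1:4 series, top 30 uM final, 1% DMSO) for 90 min at 25° C, then stopped. Substrate-to-product conversion was read by LabChip microfluidic mobility shift; 10 uM staurosporine served as full-inhibition wells.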

[1] = tested on: phosphorylation of the IRF-3 protein in MDA-MB-468 cells; assay: pIRF3 immunocytochemistry cell based assay
Procedure, shortened: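 MDA-MB-468 cells got compounds (10-point, 3-fold from 10 uM) for 1 h at 37 °C, then 10 ug/ml Poly(I:C) for 2 h. Fixed, permeabilized cells were immunostained for pIRF3 with AlexaFluor488 and counterstained with PI. % phosphorylation was read by laser scanning cytometry, and IC50 curves were fitted.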

[2] = Homo sapiens, MDA-MB-468 cells, Poly(I:C) stimulation, read-out: pIRF3 IC50

| IC50 (TBK1) | IC50 (IKKε) | IC50 [1, 2] | IC50 ([1]; MDA-MB-468 cells, Poly(I:C) stimulation, read-out: pIRF3 IC50) | Compound | IC50 ([1]; Homo sapiens, MDA-MB-468, read-out: pIRF3 IC50) |
| --- | --- | --- | --- | --- | --- |
| < 100 nM | < 100 nM | 100 to 1000 nM |  | COc1cc(C(=O)NOC2COC2)ccc1-c1cc2nccc(-c3ccc(OC4CCOCC4)c(C#N)c3)c2o1 [Compound 80, 4-{7-[3-Cyano-4-(tetrahydro-pyran-4-yloxy)-phenyl]-furo[3,2-b]pyridin-2-yl}-3-methoxy-N-(oxetan-3-yloxy)-benzamide] |  |
| 100 to 1000 nM | 100 to 1000 nM | 1000 to 5000 nM |  | COc1cc(C(=O)N(C)CCO)ccc1-c1cc2ncc(Cl)c(-c3ccc(OC4CCOCC4)c(C#N)c3)c2o1 [Compound 304, 4-[6-chloro-7-[3-cyano-4-(oxan-4-yloxy)phenyl]furo[3,2-b]pyridin-2-yl]-N-(2-hydroxyethyl)-3-methoxy-N-methylbenzamide] |  |
| < 100 nM | < 100 nM | < 100 nM |  | COc1cc(C(=O)N(C)C)ccc1-c1cc2nccc(-c3ccc(NC4CCNC4)c(C#N)c3)c2o1 (stereo not drawn) [Compound 521] |  |
| < 100 nM | < 100 nM | 100 to 1000 nM |  | COc1cc(C(=O)N(C)C)ncc1-c1cc2nccc(-c3ccc(OC4CCN(C)CC4(F)F)c(C#N)c3)c2o1 (stereo not drawn) [Compound 419, 5-(7-[3-cyano-4-[(3,3-difluoro-1-methylpiperidin-4-yl)oxy]phenyl]furo[3,2-b]pyridin-2-yl)-4-methoxy-N,N-dimethylpyridine-2-carboxamide] |  |
| < 100 nM | < 100 nM | < 100 nM |  | COc1cc(C(=O)N[C@@H]2CC[C@@H]3CN(C)C[C@@H]32)ccc1-c1cc2nccc(-c3ccc(OC4CCOCC4)c(C#N)c3)c2o1 [Compound 373, N-[(3aR,4R,6aS)-2-methyl-octahydrocyclopenta[c]pyrrol-4-yl]-4-[7-[3-cyano-4-(oxan-4-yloxy)phenyl]furo[3,2-b]pyridin-2-yl]-3-methoxybenzamide] |  |
| 100 to 1000 nM | 100 to 1000 nM | 1000 to 5000 nM |  | CN(C)C(=O)c1ccc(-c2cc3nccc(-c4ccc(N5CCC(N(C)C6CC6)C5)c(C#N)c4)c3o2)cc1 (stereo not drawn) [Compound 179, 4-(7-{3-Cyano-4-[3-(cyclopropyl-methyl-amino)-pyrrolidin-1-yl]-phenyl}-furo[3,2-b]pyridin-2-yl)-N,N-dimethyl-benzamide] |  |
| < 100 nM | < 100 nM | 100 to 1000 nM |  | COc1cc(C(=O)N2CC(O)C2)ccc1-c1cc2nccc(-c3ccc(NC4CCOCC4)c(C#N)c3)c2o1 [Compound 101, 5-{2-[4-(3-Hydroxy-azetidine-1-carbonyl)-2-methoxy-phenyl]-furo[3,2-b]pyridin-7-yl}-2-(tetrahydro-pyran-4-ylamino)-benzonitrile] |  |
| < 100 nM | < 100 nM | 100 to 1000 nM |  | COc1cc(C(=O)NC2C3COCC32)cnc1-c1cc2nccc(-c3ccc(N4CC[C@@H](F)C4)c(C#N)c3)c2o1 (stereo partly drawn) [Compound 466, 6-{7-[3-Cyano-4-((R)-3-fluoro-pyrrolidin-1-yl)-phenyl]-furo[3,2-b]pyridin-2-yl}-5-methoxy-N-(3-oxa-bicyclo[3.1.0]hex-6-yl)-nicotinamide] |  |
| < 100 nM | < 100 nM |  | 100 to 1000 nM | COc1cc(C(=O)NC2C3COCC32)cnc1-c1cc2nccc(-c3ccc(N4CC[C@H](F)C4)c(C#N)c3)c2o1 (stereo partly drawn) [Compound 467, 6-{7-[3-Cyano-4-((S)-3-fluoro-pyrrolidin-1-yl)-phenyl]-furo[3,2-b]pyridin-2-yl}-5-methoxy-N-(3-oxa-bicyclo[3.1.0]hex-6-yl)-nicotinamide] |  |
| 100 to 1000 nM | 100 to 1000 nM | 100 to 1000 nM |  | COc1cc(C(=O)N(C)C)ccc1-c1cc2nccc(-c3ccc(O[C@@H]4CCCNC4)c(C#N)c3)c2o1 [Compound 163, 4-{7-[3-Cyano-4-((R)-piperidin-3-yloxy)-phenyl]-furo[3,2-b]pyridin-2-yl}-3-methoxy-N,N-dimethyl-benzamide] |  |
| < 100 nM | < 100 nM | 100 to 1000 nM |  | COc1cc(C(=O)N2CC3C2CCN3C)cnc1-c1cc2nccc(-c3ccc(OC4CCOCC4)c(C#N)c3)c2o1 (stereo not drawn) [Compound 405, 5-[2-[3-methoxy-5-([2-methyl-2,6-diazabicyclo[3.2.0]heptan-6-yl]carbonyl)pyridin-2-yl]furo[3,2-b]pyridin-7-yl]-2-(oxan-4-yloxy)benzonitrile hydrochloride] |  |
| < 100 nM | < 100 nM | < 100 nM |  | COc1cc(C(=O)N[C@H]2[C@@H]3C[C@H]2CN(C)C3)cnc1-c1cc2nccc(-c3ccc(OC4CCOCC4)c(C#N)c3)c2o1 [Compound 397, 6-{7-[3-Cyano-4-(tetrahydro-pyran-4-yloxy)-phenyl]-furo[3,2-b]pyridin-2-yl}-5-methoxy-N-((1S,5R,6R)-3-methyl-3-aza-bicyclo[3.10.1]hept-6-yl)-nicotinamide] |  |
| < 100 nM | < 100 nM | 100 to 1000 nM |  | COc1cc(C(=O)N2CCC(CO)CC2)ccc1-c1cc2nccc(-c3ccc(N4CC[C@H](F)C4)c(C#N)c3)c2o1 [Compound 70, 2-((S)-3-Fluoro-pyrrolidin-1-yl)-5-{2-[4-(4-hydroxymethyl-piperidine-1-carbonyl)-2-methoxy-phenyl]-furo[3,2-b]pyridin-7-yl}-benzonitrile] |  |
| < 100 nM | < 100 nM | 100 to 1000 nM |  | COc1cc(C(=O)N(C)CCO)ccc1-c1cc2ncc(F)c(-c3ccc(OC4CCOCC4)c(C#N)c3)c2o1 [Compound 297, 4-[7-[3-cyano-4-(oxan-4-yloxy)phenyl]-6-fluorofuro[3,2-b]pyridin-2-yl]-N-(2-hydroxyethyl)-3-methoxy-N-methylbenzamide] |  |
| < 100 nM | < 100 nM | 100 to 1000 nM |  | COc1cc(C(=O)N2CC(F)(F)C2)ccc1-c1cc2nccc(-c3ccc(OC4CCOCC4)c(C#N)c3)c2o1 [Compound 77, 5-{2-[4-(3,3-Difluoro-azetidine-1-carbonyl)-2-methoxy-phenyl]-furo[3,2-b]pyridin-7-yl}-2-(tetrahydro-pyran-4-yloxy)-benzonitrile] |  |
| < 100 nM | < 100 nM | 100 to 1000 nM |  | COc1cc(C(=O)NC2CCOC2)ccc1-c1cc2nccc(-c3ccc(NC4CCOCC4)c(C#N)c3)c2o1 (stereo not drawn) [Compound 117, 4-{7-[3-Cyano-4-(tetrahydro-pyran-4-ylamino)-phenyl]-furo[3,2-b]pyridin-2-yl}-3-methoxy-N-(tetrahydro-furan-3-yl)-benzamide] |  |

| Compound | IC50 (TBK1) | IC50 (IKKε) | IC50 [1, 2] | IC50 ([1]; MDA-MB-468 cells, Poly(I:C) stimulation, read-out: pIRF3 IC50) | IC50 ([1]; Homo sapiens, MDA-MB-468, read-out: pIRF3 IC50) |
| --- | --- | --- | --- | --- | --- |
| COc1cc(C(=O)N2CCCCN2C)cnc1-c1cc2nccc(-c3ccc(OC4CCOCC4)c(C#N)c3)c2o1 [Compound 408, 5-(2-[3-methoxy-5-[(2-methyl-1,2-diazinan-1-yl)carbonyl]pyridin-2-yl]furo[3,2-b]pyridin-7-yl)-2-(oxan-4-yloxy)benzonitrile] | < 100 nM | < 100 nM |  |  | 100 to 1000 nM |
| N#Cc1cc(-c2ccnc3cc(-c4cccc(C(=O)NC5CN6CCC5CC6)c4)oc23)ccc1OC1CCOCC1 (stereo not drawn) [Compound 143] | < 100 nM | < 100 nM | 100 to 1000 nM |  |  |
